Consider 1 substance from US20200102349A1, “PEPTIDE REAGENTS AND METHODS FOR DETECTION AND TARGETING OF DYSPLASIA, EARLY CANCER AND CANCER” (THE REGENTS OF THE UNIVERSITY OF MICHIGAN, priority 2014, published 2020).

Test [1] relates to HT29 cells. Kind of test: Apparent association time constant on flow cytometry. In kind it is binding, human. On the procedure: We measured the apparent association time constant of the peptide to HT29 cells as an assessment of binding onset. HT29 cells were grown to […] confluence in 10 cm dishes, and detached with PBS-based cell dissociation buffer (Invitrogen). Cells (˜10^5) were incubated with 5 μM QRH*-Cy5.5 at 4° C. for various time intervals ranging from 0 to 20 min. The cells were centrifuged, washed with cold PBS, and fixed with 4% PFA. Flow cytometry analysis was performed as described above, and the median fluorescence intensity (y) was ratioed with that of HT29 cells without addition of peptide at different time points (t) using Flowjo software. The rate constant k was calculated by fitting the data to a first order kinetics model, y(t)=Imax[1−exp^(−kt)], where Imax=maximum value,^60 using Prism 5.0 software (GraphPad Inc).

Test [2] relates to HT29 cells. The test is described as follows: Apparent dissociation constant on flow cytometry. In kind it is binding, human. Particulars: 4° C., 1 hour. On the procedure:
We measured the apparent dissociation constant of the peptide to HT29 cells as an assessment of binding affinity. QRH*-Cy5.5 was serially diluted in PBS at concentrations of 0, 10, 25, 50, 75, 100, 125, 150 and 200 nM. HT29 cells (˜10^5) were incubated with QRH*-Cy5.5 at 4° C. for 1 hour, washed with cold PBS, and the mean fluorescence intensities were measured on flow cytometry. The equilibrium dissociation constant kd=1/ka was calculated by performing a least squares fit of the data to the non-linear equation […]. I0 and Imax are the initial and maximum fluorescence intensities, corresponding to no peptide and at saturation, respectively, and [X] represents the concentration of the bound peptide [Thomas et al., Clin Exp Metastasis, 26:105-119 (2009)]. Origin 6.1 data analysis software (OriginLab Corp) was used to calculate kd.
A general note: Flow cytometry measures light scatter and fluorescence of single cells or particles in a stream.

The subject of test [3] is colonic dysplasia (flat lesions and polyps). The test is described as follows: In vivo NIR fluorescence endoscopy of colon in CPC;Apc mouse. The following applies: for mean (±SD) log of the T/B ratio: topical 100 μM, 5 min incubation. As to the method:
For the in vivo fluorescence images of mouse colon, the T/B ratios for flat dysplasia and polyps were log-transformed to improve normality. The fold-change between classification pairs was estimated using the anti-log of the difference in the log-transformed data. Differences in results between the experimental and control peptides were evaluated on t-test. *P<0.05 was considered significant. Similar methods were used to evaluate the ex vivo fluorescence images of human colonic specimens. The results were plotted on a receiver-operator characteristic (ROC) curve. Co-localization of peptide and antibody binding was evaluated on Pearson's correlation coefficient. All analyses were performed using custom Matlab software (MathWorks Inc).
Mouse imaging studies were performed with approval of the University of Michigan Committee on the Use and Care of Animals (UCUCA). The mice were housed in pathogen-free conditions and supplied water ad libitum under controlled conditions of humidity (50±10%), light (12/12 hour light/dark cycle) and temperature (25° C.). Anesthesia was induced and maintained via a nose cone with inhaled isoflurane mixed with oxygen at a concentration of 2-4% at a flow rate of ˜0.5 L/min. The colon was first rinsed with tap water to remove mucous and debris. White light illumination was used first to identify anatomic landmarks, including polyps, mucosal folds, colonic segment, and distance of endoscope tip from anus, to register images with histology. The Cy5.5-labeled peptides were delivered at a concentration of 100 μM in a volume of 1.5 mL through the 3 Fr instrument channel. After 5 min for incubation, the colon was rinsed 3× with a tap water to remove the unbound peptides. After imaging was completed, the mice were euthanized. The colon was resected, and divided along the longitudinal axis. Flat lesions and polyps were identified on fluorescence, excised perpendicular to the mucosal surface, and processed for histology (H&E). We collected images from mice (n=5) that ranged in age from 7 to 10 months.
Imaging was performed using a small animal endoscope (Karl Storz Veterinary Endoscopy).^39 A xenon light source provides white light illumination via a fluid light cable. A diode-pumped solid state laser (TechnicaLaser Inc) provides excitation at λex=671 nm. The laser beam is expanded to a diameter of 3 mm to fill the aperture of the light cable. The laser power at the tip of the endoscope is <2 mW. The white light images reflect off a dichroic mirror (Semrock Inc, # FF685-Di02-25×36, λc=685 nm), and are focused by an achromatic doublet (Edmund Optics Inc, #32-323). They pass through a neutral density filter (OD 1), and are detected by a color camera (Point Grey Research, # GX-FW-28S5C-C). The fluorescence images pass through the dichroic and a band pass filter (Semrock Inc, # FF01-716/40-25, λC=716 nm, Δλ=40 nm), and are focused on a monochrome camera (Point Grey Research, # GX-FW-28S5M-C). All videos (1932×1452 resolution) are recorded at 15 frames per sec via a firewire connection.
White light and fluorescence videos were exported in avi format with 24 (RGB) and 8 (grayscale) bit digital resolution for the color and fluorescence images, respectively. […] Individual frames were exported using custom Matlab software. On the fluorescence images, 3 regions of interest (ROI, 25×25 pixels) were picked at random within the dysplastic lesion and within adjacent areas of normal-appearing mucosa. The mean intensities within these ROI's on the fluorescence images were measured. The target to-background (T/B) ratio for each image was determined by ratioing the mean intensities of these two ROIs.

The next test deals with SW620 cells. Kind of test: Peptide binding to colorectal cancer cells on confocal microscopy (SW620). In kind it is cell-based, human. The following applies: SW620, 5 μM, 3 min. On the procedure:
(§1) HT29, SW480, and SW620 cells (˜10^3) were grown on cover slips to ˜80% confluence. The cells were washed 1× with PBS and incubated with 5 μM of QRH*-Cy5.5 and PEH*-Cy5.5 for 3 min at RT. The cells were then washed 3× in PBS, fixed with 4% paraformaldehyde (PFA) for 5 min, washed 1× with PBS, and then mounted on glass slides with ProLong Gold reagent containing DAPI (Invitrogen). Confocal fluorescence images were collected with FITC, Cy5.5, and DAPI filters (Leica Inverted SPSX Confocal Microscope System) using a 63× oil-immersion objective. Fluorescence intensities from 5 cells in 2 independent images were quantified using custom Matlab (Mathworks) software.
(§2) We assessed binding of QRH*-Cy5.5 to a panel of colorectal cancer cells that vary in EGFR expression level on confocal microscopy. We observed binding of QRH*-Cy5.5 to the surface (arrows) of HT29, SW480, and SW620 cells with decreasing strength, FIG. 3A-C, scale bars 30 μm. […] Results are an average of 10 cells from 2 independent images. EGFR expression is shown on Western blot, FIG. 3H.

The subject of test [4] is HT29 cells. The test is described as follows: Peptide binding to colorectal cancer cells on confocal microscopy (HT29). In kind it is cell-based, human. Particulars: HT29, 5 μM, 3 min. On the procedure:
as §1, §2

For test [5], the system named is human biliary tract epithelium. Kind of test: Immunofluorescence of QRH*-Cy5.5 on human biliary tract epithelium.

For the substance “QRHKPRE (SEQ ID NO: 1) with Cy5.5 fluorophore attached via a GGGSK linker (SEQ ID NO: 18) on the C-terminus [QRH*-Cy5.5]”, the “binding time scale (onset)” value in the test on HT29 cells [1] turned out to be 2.46 min. The “apparent association time constant k” value in the test on HT29 cells [1] (5 μM, 4° C., flow cytometry) stood at 0.406 min⁻¹. Further, the Kd in the test with HT29 cells [2] came out at 50 nM. In addition, the “mean fold-difference of T/B, QRH*-Cy5.5 versus PEH*-Cy5.5” value in test [3] (flat lesions (n=15)) is reported as 2.05; in test [3] (polyps (n=15)), 2.43. Moreover, the “mean (±SD) log of the T/B ratio” value in test [3] (flat lesions (n=15)) came to 0.420±0.103; in test [3] (polyps (n=15)), 0.572±0.181. Moreover, the “NIR fluorescence signal from polyp and flat lesions in vivo” value in test [3] (topical, distal colon, 5 min) is “increased intensity”. Further, the “fluorescence intensity of binding (mean±std)” value in the test on SW620 cells is 1.0±0.3; in the test with HT29 cells [4] it was 3.6±0.6. The staining on immunofluorescence entry in test [5] (biliary intraepithelial neoplasia (BilIN) and biliary tract cancer) is on record as “intense staining”; in test [5] (normal biliary tract epithelium), “minimal staining”.
